Results published in patent EP0234113A1, “2,3-Dihydro-1H-phenalene-2-amino compounds as anti-psychotic drugs” (THE UPJOHN COMPANY, priority 1985, dated 1987).
Counter-ions that a name gives are not always drawn.

The molecules below were run on body temperature (assay: Hypothermia Test (effect on body temperature)). Details: Mus musculus, ip, 0.75 h, read-out: hypothermia, calculated ED50.
Type: in vivo, CF-1 male mice
Experimental: The Effect on Body Temperature (Hypothermia) Test and the Antagonism of Apomorphone-Induced Case Climbing (ACC), (Apomorphine Gnawing Test) are described on page 1398 of the publication, Journal of Medicinal Chemistry, Vol. 22, No. 11, pp. 1390-1398, in an article entitled "6-Aryl-4H-s-triazolo[4,3-a][1,4]benzodiazepines....Action" by J. B. Hester, Jr., et al.
For the tests here, the Hypothermia Test procedure was run as follows:
A group of four CF-1 male mice (18-22 g each) was injected intraperitoneally with the test compound prepared in 0.25 percent w/v methylcellulose in water solution. After 45 min, abdominal temperature of each mouse was measured using a thermister probe. A control group of four mice was treated with vehicle only and the temperature of the control group was taken in a similar manner. A compound was considered to have a significant effect on body temperature if the mean temperature in the test compound treated group deviated more than 3.5°C from the mean temperature of the parallel control group. Stimulants tend to elevate temperatures; depressants tend to lower body temperature.
For `CCCN(CCC)C1Cc2cccc3cc(O)cc(c23)C1` (racemic) [(15), (±)2-(N,N-di-n-propylamino)-2,3-dihydro-lH-phenalen-5-ol], the ED50 was 1 mg/kg.

Same assay, conditions: either test: hypothermic or apomorphine antagonism
With “N,N-dimethyl-6-(2-methyl-l,3-dioxan-2-yl)-2,3-dihydro-lH- phenalen-2-amine [(8)]” the “active in either the hypothermic or the apomorphine antogonism test” value was “active”. In the case of `CCCNC1Cc2cccc3cccc(c23)C1` [(56), N-n-propyl-2,3-dihydro-lH-phenalen-2-amine hydrochloride], the “active in either the hypothermic or the apomorphine antogonism test” value is reported as “active”. In the case of “5-[2-(N,N-dimethylamino)-2,3-dihydro-1H-phenalen-2-yl]azetidine hydrochloride [(13)]”, the “active in either the hypothermic or the apomorphine antogonism test” value is reported as “active”. With `CN(C)C1Cc2cccc3c(O)ccc(c23)C1` (stereo not drawn) [(3), 2-(N,N-dimethylamino-2,3-dihydro-lH-phenalen-6-ol hydrochloride] the “active in either the hypothermic or the apomorphine antogonism test” value was “active”. In the case of `CCCN(CCC)C1Cc2cccc3cc(OCc4ccccc4)cc(c23)C1` (stereo not drawn) [(18), [2-(N,N-di-n-propylamino)-2,3-dihydro-lH-phenalen-5-yl]-a-benzyl ether], the “active in either the hypothermic or the apomorphine antogonism test” value is reported as “active”. `NC1Cc2cccc3cc(OCc4ccccc4)cc(c23)C1` (stereo not drawn) [(38), [2-amino-2,3-dihydro-lH-phenalen-5-yl]-a-benzyl ether hydrochloride] was tested, and the “active in either the hypothermic or the apomorphine antogonism test” value was “active”. “N,N-dimethyl-4-methoxy-1H-phenalen-2-ylamine hydrochloride, 0.25 H20 hydrate [(30)]” was tested, and the “active in either the hypothermic or the apomorphine antogonism test” value was “active”. For “6-chloro-N,N-dimethyl-2,3-dihydro-lH-phenalen-2-amine hydrochloride [(52)]”, the “active in either the hypothermic or the apomorphine antogonism test” value was “active”. With `CN(C)C1Cc2cccc3c(C(=O)c4ccccc4)ccc(c23)C1` (stereo not drawn) [(39), [2-(N,N-dimethylamina-2,3-dihydro-1H-phenalen-6-yl]phenone maleate salt, hydrochloride] the “active in either the hypothermic or the apomorphine antogonism test” value was “active”. `CN(C)C1Cc2cccc3cccc(c23)C1` [(7), N,N-dimethyl-2,3-dihydro-lH-phenalen-2-amine hydrochloride] was tested, and the “active in either the hypothermic or the apomorphine antogonism test” value was “active”. For “1-[2-(N,N-dimethylamino)-2,3-dihydro-1H-phenalen-y-yl]-ethan-1-ol hydrochloride [(10)]”, the “active in either the hypothermic or the apomorphine antogonism test” value was “active”. For `CCCCCCC(=O)Oc1cc2c3c(cccc3c1)CC(N(CCC)CCC)C2` (stereo not drawn) [(46), [2-(N,N-di-n-propylamino)-2,3-dihydro-1H-phenalen-5-yl]heptanoate ester hydrochloride], the “active in either the hypothermic or the apomorphine antogonism test” value was “active”. With `c1cc2c3c(cccc3c1)CC(N1CCC1)C2` [(54), 1-[2,3-dihydro-IH-phenalen-2-yl]azetidine succinate salt] the “active in either the hypothermic or the apomorphine antogonism test” value was “active”. In the case of `CCCN(CCC)C1Cc2cccc3cc(OC(C)=O)cc(c23)C1` (stereo not drawn) [(37), [2-(N,N-di-n-propylamino)-2,3-dihydro-lH-phenalen-5-yl]acetate ester], the “active in either the hypothermic or the apomorphine antogonism test” value is reported as “active”. For `CCCN(CCC)C1Cc2cccc3cc(O)cc(c23)C1` (racemic) [(17), (±)2-(N,N-di-n-propylamino)-2,3-dihydro-lH-phenalen-5-ol hydrobromide salt], the “active in either the hypothermic or the apomorphine antogonism test” value was “active”. For `CCNC1Cc2cccc3cccc(c23)C1` [(57), N-ethyl-2,3-dihydro-lH-phenalen-2-amine hydrochloride], the “active in either the hypothermic or the apomorphine antogonism test” value was “active”. With `NC1Cc2cccc3c(Br)ccc(c23)C1` (stereo not drawn) [(27), 6-bromo-2,3-dihydro-lH-phenalen-2-ylamine hydrochloride] the “active in either the hypothermic or the apomorphine antogonism test” value was “active”. `CCCN(CCC)C1Cc2cccc3ccc(OC)c(c23)C1` (stereo not drawn) [(25), N,N-di-n-propyl-4-methoxy-2,3-dihydro-lH-phenalen-2-amine hydrochloride] was tested, and the “active in either the hypothermic or the apomorphine antogonism test” value was “active”. With `CN(C)C1Cc2cccc3c(Br)ccc(c23)C1` (stereo not drawn) [(2), 6-Bromo-N,N-dimethyl-2,3-dihydro-lH-phenalen-2-amine hydrochloride] the “active in either the hypothermic or the apomorphine antogonism test” value was “active”. For `CCN(CC)C1Cc2cccc3cccc(c23)C1` [(55), N,N-diethyl-2,3-dihydro-lH-phenalen-2-amine hydrochloride, 0.25 H2O hydrate], the “active in either the hypothermic or the apomorphine antogonism test” value was “active”. For `CNC1Cc2cccc3c(C(C)=O)ccc(c23)C1` (stereo not drawn) [(14), N-methyl-6-acetyl-2,3-dihydro-lH-phenalen-2-amine hydrochloride], the “active in either the hypothermic or the apomorphine antogonism test” value was “active”. With “6-chloro-N,N-di-n-propyl-2,3-dihydro-lH-phenalen-2-ylamine hydrochloride [(51)]” the “active in either the hypothermic or the apomorphine antogonism test” value was “active”. For `CN(C)C1Cc2cccc3ccc(O)c(c23)C1` (stereo not drawn) [(36), 2-(N,N-dimethylamino)-2,3-dihydro-lH-phenalen-4-ol hydrobromide], the “active in either the hypothermic or the apomorphine antogonism test” value was “active”. For `CN(C)C1Cc2cccc3cc(O)cc(c23)C1` (stereo not drawn) [(23), 2-(N,N-dimethylamino)-2,3-dihydro-lH-phenalen-5-ol], the “active in either the hypothermic or the apomorphine antogonism test” value was “active”. In the case of `Cl.NC1Cc2cccc3cc(Cl)cc(c23)C1` (stereo not drawn) [(50), 5-chloro-2,3-dihydro-1H-phenalen-2-ylamine hydrochloride], the “active in either the hypothermic or the apomorphine antogonism test” value is reported as “active”. In the case of `CCCN(CCC)C1Cc2cccc3ccc(O)c(c23)C1` (stereo not drawn) [(28), 2-(N,N-di-n-propylamino)-2,3-dihydro-1H-phenalen-4-ol hydrobromide], the “active in either the hypothermic or the apomorphine antogonism test” value is reported as “active”. With `CCCN(CCC)C1Cc2cccc3cccc(c23)C1` [(53), N,N-di-n-propyl-2,3-dihydro-lH-phenalen-2-amine hydrochloride] the “active in either the hypothermic or the apomorphine antogonism test” value was “active”. In the case of `COc1ccc2cccc3c2c1CC(N)C3` (stereo not drawn) [(24), 4-methoxy-2,3-dihydro-lH-phenalen-2-amine], the “active in either the hypothermic or the apomorphine antogonism test” value is reported as “active”. In the case of `CCCN(CCC)C1Cc2cccc3cc(O)cc(c23)C1` (single isomer, unassigned; (-)) [(34), (-)-2-(N,N-di-n-propylamino)-2,3-dihydro-lH-phenalen-5-ol hydrobromide], the “active in either the hypothermic or the apomorphine antogonism test” value is reported as “active”. With `CCCN(CCC)C1Cc2cccc3cc(OC(=O)Cc4ccccc4)cc(c23)C1` (stereo not drawn) [(48), [2-(N,N-di-n-propylamino)-2,3-dihydro-1H-phenalen-5-yl]-α-phenylacetate ester hydrochloride, 0.5 H2O hydrate] the “active in either the hypothermic or the apomorphine antogonism test” value was “active”. For `COc1ccc2cccc3c2c1CC(N(C)C)C3` (stereo not drawn) [(35), N,N-dimethyl-4-methoxy-2 ,3-dihydro-lH-phenalen-2-ylamine hydrochloride], the “active in either the hypothermic or the apomorphine antogonism test” value was “active”. `Brc1ccc2c3c(cccc13)CC(N1CCC1)C2` (stereo not drawn) [(12), 1-[6-bromo-2,3-dihydro-1H-phenalen-2-yl]azetidine] was tested, and the “active in either the hypothermic or the apomorphine antogonism test” value was “active”. In the case of `CCCN(CCC)C1Cc2cccc3c(O)ccc(c23)C1` (stereo not drawn) [(9), 2-(N,N-di-n-propylamino)-2,3-dihydro-lH-phenalen-6-ol hydrochloride], the “active in either the hypothermic or the apomorphine antogonism test” value is reported as “active”. With “[2-amino-2,3-dihydro-lH-phenalen-6-yl]-a-benzyl ether maleate salt [(49)]” the “active in either the hypothermic or the apomorphine antogonism test” value was “active”. For `CCCN(CCC)C1Cc2cccc3cc(O)cc(c23)C1` (single isomer, unassigned; (+)) [(33), (+)-2-(N,N-di-n-propylamino)-2,3-dihydro-lH-phenalen-5-ol hydrobromide], the “active in either the hypothermic or the apomorphine antogonism test” value was “active”. For `Brc1ccc2c3c(cccc13)CC(N1CCCC1)C2` (stereo not drawn) [(26), 1-[6-bromo-2,3-dihydro-lH-phenalen-2-yl]pyrrolidine], the “active in either the hypothermic or the apomorphine antogonism test” value was “active”. For “N-methyl-6-(2-methyl-l,3-dioxan-2-yl)-2,3-dihydro-lH-phena- len-2-amine [(5)]”, the “active in either the hypothermic or the apomorphine antogonism test” value was “active”. `CCCN(CCC)C1Cc2cccc3cc(O)cc(c23)C1` (racemic) [(15), (±)2-(N,N-di-n-propylamino)-2,3-dihydro-lH-phenalen-5-ol] was tested, and the “active in either the hypothermic or the apomorphine antogonism test” value was “active”. For `CN(C)C1Cc2cccc3c(C(=O)c4ccccc4)ccc(c23)C1` (stereo not drawn) [(19), [2-(N,N-dimethylamino)-2,3-dihydro-1H-phenalen-6-yl]phenone maleate salt], the “active in either the hypothermic or the apomorphine antogonism test” value was “active”. For `CN(C)C1(N2CCC2)Cc2cccc3cccc(c23)C1` [(11), 1-[2-(N,N-dimethylamino)-2,3-dihydro-1H-phenalen-2-yl]azetidine], the “active in either the hypothermic or the apomorphine antogonism test” value was “active”. `CCCN(CCC)C1Cc2cccc3cc(OC(=O)OCC)cc(c23)C1` (stereo not drawn) [(47), [2-(N,N-di-n-propylamino)-2,3-dihydro-lH-phenalen-5-yl]-ethyl carbonate (ester)] was tested, and the “active in either the hypothermic or the apomorphine antogonism test” value was “active”. In the case of `CNC1Cc2cccc3c(OCc4ccccc4)ccc(c23)C1` (stereo not drawn) [(41), [2-(N-methylamino)-2,3-dihydro-1H-phenalen-6-yi]-α-benzyl-ether p-toluenesulfonate salt monohydrate], the “active in either the hypothermic or the apomorphine antogonism test” value is reported as “active”. `CCCN(CCC)C1Cc2cccc3cc(OC(=O)c4ccccc4)cc(c23)C1` (stereo not drawn) [(45), [2-(N,N-di-n-propylamino)-2,3-dihydro-lH-phenalen-5-yl]benzoate ester hydrochloride] was tested, and the “active in either the hypothermic or the apomorphine antogonism test” value was “active”. For `CN(C)C1Cc2cccc3c(OCc4ccccc4)ccc(c23)C1` (stereo not drawn) [(22), [2-(N,N-dimethylamino)-2,3-dihydro-1H-phenalen-6-yl]benzyl ether hydrochloride], the “active in either the hypothermic or the apomorphine antogonism test” value was “active”.
